Data published in ChEMBL document CHEMBL1201862, “PubChem BioAssay data set” (2004).
Values joined by “and” are separate entries in the source; they are usually repeats but may differ in a detail not shown here. Equal values may be shown once.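 Protocol summary: plate cells (96-well), add compound at 5 concentrations, incubate 48 h, interpolate endpoints linearly. GI50 marks 50% less growth.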 Active and inactive are the calls of the source. Rule as the data show it: active = GI50 up to about 1.1 µM and inactive = higher. Peptide text beside a SMILES is read from it. * marks the point of attachment. Fmoc = O=C(OCC1c2ccccc2-c2ccccc21)*; Boc = CC(C)(C)OC(=O)*; OtBu = CC(C)(C)O*

Columns and labels:
Assay in all cases: growth of human tumour cells (NCI), 48 h
786-0 = tested on: 786-0
A498 = tested on: A498
A549 = tested on: A549
ACHN = tested on: ACHN
BT-549 = tested on: BT-549
CAKI-1 = tested on: CAKI-1
CCRF-CEM = tested on: CCRF-CEM
COLO 205 = tested on: COLO 205
DU-145 = tested on: DU-145
EKVX = tested on: EKVX
HCC 2998 = tested on: HCC 2998
HCT-116 = tested on: HCT-116
HOP-62 = tested on: HOP-62
Hs-578T = tested on: Hs-578T
K562 = tested on: K562
KM12 = tested on: KM12
LOX IMVI = tested on: LOX IMVI
M14 = tested on: M14
MCF7 = tested on: MCF7
MDA-MB-231 = tested on: MDA-MB-231
MDA-MB-435 = tested on: MDA-MB-435
MDA-N = tested on: MDA-N
MOLT-4 = tested on: MOLT-4
Malme-3M = tested on: Malme-3M
NCI-H23 = tested on: NCI-H23
NCI-H460 = tested on: NCI-H460
NCI-H522 = tested on: NCI-H522
OVCAR-3 = tested on: OVCAR-3
OVCAR-4 = tested on: OVCAR-4
OVCAR-5 = tested on: OVCAR-5
OVCAR-8 = tested on: OVCAR-8
PC-3 = tested on: PC-3
RPMI-8226 = tested on: RPMI-8226
RXF 393 = tested on: RXF 393
SF-268 = tested on: SF-268
SF-295 = tested on: SF-295
SF-539 = tested on: SF-539
SK-MEL-28 = tested on: SK-MEL-28
SK-MEL-2 = tested on: SK-MEL-2
SK-MEL-5 = tested on: SK-MEL-5
SK-OV-3 = tested on: SK-OV-3
SN12C = tested on: SN12C
SNB-19 = tested on: SNB-19
SNB-75 = tested on: SNB-75
SR = tested on: SR
SW-620 = tested on: SW-620
T47D = tested on: T47D
TK-10 = tested on: TK-10
U-251 = tested on: U-251
UACC-257 = tested on: UACC-257
UACC-62 = tested on: UACC-62
UO-31 = tested on: UO-31
HOP-92 = tested on: HOP-92
HT-29 = tested on: HT-29
IGROV-1 = tested on: IGROV-1

Measured: GI50

O=C(Cn1c2ccc(Br)cc2c2nc3ccccc3nc21)NNC(=O)NC1CCCCC1
inactive: 786-0 44.3 µM | A498 > 100 µM | A549 18.3 µM | ACHN > 100 µM | BT-549 > 100 µM | CAKI-1 30.3 µM | CCRF-CEM 26.7 µM | COLO 205 86.9 µM | DU-145 24.9 µM | EKVX 65.8 µM | HCC 2998 > 100 µM | HCT-116 57.3 µM | HOP-62 27.7 µM | Hs-578T 24.4 µM | K562 47.1 µM | KM12 37.4 µM | LOX IMVI 41.4 µM | M14 40.3 µM | MCF7 49 µM | MDA-MB-231 30.1 µM | MDA-MB-435 32.7 µM | MDA-N 44 µM | MOLT-4 25.2 µM | Malme-3M 52.2 µM | NCI-H23 61.4 µM | NCI-H460 47.8 µM | NCI-H522 72.8 µM | OVCAR-3 63.5 µM | OVCAR-4 13.8 µM | OVCAR-5 52.8 µM | OVCAR-8 35.9 µM | PC-3 37.7 µM | RPMI-8226 > 100 µM | RXF 393 78.2 µM | SF-268 45.5 µM | SF-295 34.3 µM | SF-539 > 100 µM | SK-MEL-28 45.2 µM | SK-MEL-2 > 100 µM | SK-MEL-5 > 100 µM | SK-OV-3 50.7 µM | SN12C 52.8 µM | SNB-19 89.1 µM | SNB-75 23.2 µM | SR 31 µM | SW-620 33 µM | T47D 33 µM | TK-10 42.8 µM | U-251 30.1 µM | UACC-257 98.9 µM | UACC-62 > 100 µM | UO-31 2.52 µM

CC(C)(C)OC(=O)CCC(NC(=O)OCC1c2ccccc2-c2ccccc21)C(=O)NC(Cc1c[nH]c2ccccc12)C(=O)NC(CCCCNC(=O)OC(C)(C)C)C(=O)N1CCCC1C(=O)NCC(N)=O (stereo unspecified) (Fmoc-E(OtBu)WK(Boc)PG-NH2; configuration not given here)
inactive: 786-0 20.7 µM and 17.5 µM | ACHN 17.7 µM and 16.4 µM | BT-549 16 µM and 19.5 µM | HCC 2998 66.7 µM and 34.8 µM | HOP-92 18.5 µM and 17.6 µM | HT-29 > 100 µM and 58.3 µM | Hs-578T 17.3 µM and 28.4 µM | IGROV-1 31.2 µM and 16 µM | K562 30.1 µM and 42.5 µM | LOX IMVI 22.5 µM and 12.2 µM | M14 22.4 µM and 39.7 µM | MCF7 24.9 µM and 26.5 µM | MDA-MB-231 15.6 µM and 12.6 µM | MDA-N 17.8 µM and 25.5 µM | MOLT-4 28.2 µM and 24.4 µM | Malme-3M 19.7 µM and 31 µM | NCI-H460 25.9 µM and 16.4 µM | NCI-H522 1.62 µM | OVCAR-3 19.4 µM and 16.8 µM | OVCAR-4 12.9 µM and 17.2 µM | OVCAR-8 34.6 µM and 17.8 µM | RPMI-8226 17.4 µM and 34.4 µM | RXF 393 22.2 µM and 15 µM | SF-295 34.8 µM and 26.2 µM | SF-539 35.6 µM and 63.7 µM | SK-MEL-28 48.1 µM and 43.4 µM | SK-MEL-2 18.2 µM and 19.7 µM | SK-MEL-5 32 µM and 16.2 µM | SNB-19 19.6 µM and 26.9 µM | SNB-75 23.3 µM and 16 µM | SR 26.5 µM and 41.7 µM | T47D 63.2 µM and 52.5 µM | U-251 17.3 µM and 17.2 µM | UACC-62 15 µM and 17 µM
